In brackets after ≈: the same amount, converted by molar mass. Bounds are passed on as bounds.

Series [1] can be described thus: In vitro microsomal stability, human. The conditions noted are these: human microsomes, 1 µM; value of 10 = low clearance, essentially below detection limit. Format: in vitro ADME. As to the method: (§1) Incubations of a test compound at a concentration of 1 µM with microsomes (0.5 mg/ml) from the appropriate species (human, mouse, or rat) plus cofactor NADPH were performed in 96-well plates at 37°C on a TECAN automated liquid handling system (Tecan Group Ltd., Männedorf, Switzerland). After pre-incubation of the test compound with the microsomes for 10 min, the enzymatic reaction was started by the addition of cofactors. Aliquots of the incubations are removed at 1, 3, 6, 9, 15, 25, 35, and 45 min and are then quenched with 1:3 (v/v) acetonitrile containing internal standards. Samples were then cooled and centrifuged before analysis of the supernatant by LC-MS/MS. Logarithmic Peak area ratios (test compound peak area/internal standard peak area) were plotted against incubation time and a linear fit made to the data with emphasis upon the initial rate of compound disappearance. The slope of the fit was then used to calculate the intrinsic clearance: Clint (µL/min/mg protein) = −slope (min-1) * 1,000/[protein concentration (mg/ml)].

A short description of a further series: HT-solubility assay. Format: physicochemical. The settings on record: aqueous buffer, thermodynamic from solid; phosphate buffer pH 6.5. The protocol: This assay was performed on a TECAN station starting from 10 mM DMSO stock solutions of the test compounds. Two aliquots of the test compound were dried and dissolved in phosphate buffer at pH 6.5. Sonication supports optimal re-solubilization. The solutions were then filtered and diluted (3 different dilution levels for each compound) followed by quantification of the dissolved material with Rapid-Fire MS. Quantification was performed for each test compound with a 6-point calibration curve prepared with the same DMSO starting solution.

A further series deals with T1, human ATX (Homo sapiens, UniProt Q13822).
T1 construct: made in house
Kind of series: Autotaxin inhibition assay (Amplex-Red). The settings on record: ATX 3 nM, LPC 18:1 30 μM, read-out: hATX IC50. The class given is biochemical. The protocol: Plates were sealed and incubated for 5 min. The final assay concentrations were ATX 3 nM, choline oxidase 2 U/ml, horseradish peroxidase 4 U/ml, LPC 18:1 30 μM, Amplex Red 50 μM, and DMSO 2%.

The nature of series [2]: In vitro microsomal stability, mouse. Format: in vitro ADME. The settings on record: mouse microsomes, 1 µM; value of 10 = low clearance, essentially below detection limit. As to the method:
as §1

Series [3] is described as follows: Glutathione addition screening. The class given is in vitro ADME. The settings on record: human liver microsomes + NADPH + GSH. As to the method: All sample handling was performed based on a 96-well plate format using an automated pipetting system. The test compounds, positive controls (diclofenac, troglitazone, nefazodone, 4-[[1-(4-fluorophenyl)-2-methyl-1H-imidazol-4-yl]ethynyl]-2-methylpyridine) and solvent control (DMSO) were incubated with human liver microsomes supplemented with NADPH and reduced GSH. Stable GSH conjugates whose production can be assumed to be the result of chemically reactive metabolites were detected using a quadrupole time of flight mass spectrometer run in untargeted full scan accurate mass MSE mode (Waters Xevo G1 QTOFMSE; Waters GmbH, Eschborn, Germany). This generic GSH adduct detection method and the assay workflow are taking advantage of the specific fragmentation behavior of the peptide moiety upon collision induced dissociation of GSH adducts and so are largely independent of the conjugate (“X”) itself.
For orientation: Liver microsomes are a subcellular fraction often used to study metabolism.

Series [4] in a line: Lipophilicity (LogD, octanol/buffer). The conditions noted are these: 1-octanol / 25 mM phosphate buffer; pH 7.4, octanol/25 mM phosphate buffer. Format: physicochemical. As to the method:
The experiment started with the accurate coating of the hydrophobic layer (0.45 µm PVDF membranes), which was fixed on the bottom of each DIFI©-tube (Weidmann Medical Technology AG, Rapperswil, Switzerland). The coated membranes were then connected to a 96-well plate which has been prefilled with exactly 150 µl of the selected aqueous buffer solution (25 mM phosphate buffer, pH 7.4). The buffer solution contains already the compound of interest with a maximum starting concentration of 85 µM. To expand the measurement range down to logD = −0.5 and up to logD = +4, it is necessary to carry out the procedure at two different octanol/water ratios: One with an excess of octanol for hydrophilic compounds (logD < 1) and one with a low volume of octanol for the lipophilic compounds (logD > 1). Therefore, parts of the DIFI©-tubes were filled with 15 µl 1-octanol and another part with 1 µl 1-octanol. The resulting sandwich guarantees that the membrane was completely dipped in the buffer solution. The plate was then sealed and shaken for 12 h at room temperature (23°C). During this time, the substance is distributed between the layer, the octanol, and the buffer solution. After having reached a distribution equilibrium, the DIFI©-tubes were easily disassembled from the top of the 96-well plate, so that the remaining sample concentration in the aqueous phase could be analyzed by LC/MS.

The nature of series [5]: In vitro microsomal stability, rat. The class given is in vitro ADME. The settings on record: rat microsomes, 1 µM; value of 10 = low clearance, essentially below detection limit. The protocol: as §1

As a reminder, the solubility is how much of the substance goes into solution per volume. The IC50 is the concentration that gives 50% inhibition. Turning to `O=C(OCc1cc(Cl)cc(Cl)c1)N1CC[C@@H]2CN(C(=O)c3ccc4[nH]nnc4c3)C[C@@H]2CC1` [Compound 10, cis-3,5-Dichlorobenzyl 2-(1H-benzo[d][1,2,3]triazole-5-carbonyl)octahydropyrrolo-[3,4-d]azepine-6(7H)-carboxylate], the “Mic CL h” value in series [1] turned out to be 252 µL/m/mg prot. Also, in the series “HT-solubility assay”, the solubility is 7 µg/mL (≈ 14.3 µM). For the same compound, the half-maximal inhibitory concentration (IC50) at human ATX amounted to 1 nM. Moreover, in series [2], the “Mic CL m” value is listed as 727 µL/m/mg prot.
In general, logD refers to lipophilicity at a set pH, counting ionised and neutral species. A lower logD goes with lower lipophilicity. Take `O=C(OCc1cc(Cl)cc(Cl)c1)N1CC[C@@H]2CN(C(=O)c3ccc4[nH]nnc4c3)C[C@H]2C1` (relative stereo) [Compound 6, trans-2-(1H-Benzotriazole-5-carbonyl)-octahydro-pyrrolo[3,4-c]pyridine-5-carboxylic acid 3,5-dichloro-benzyl ester]: in series [1], the “Mic CL h” value is reported as 23 µL/m/mg prot. In addition, in “HT-solubility assay”, the solubility amounted to 9 µg/mL (≈ 19 µM). The GSH adducts result in series [3] is reported as “pos”. Also, the IC50 at human ATX came to 4 nM. For the same compound, the log distribution coefficient (logD) at 12 h in series [4] is 3.5. Besides, in series [2], the “Mic CL m” value came to 65 µL/m/mg prot.
As to `O=C(OCc1cc(Cl)cc(Cl)c1)N1CCC2(CC1)CN(C(=O)c1ccc3[nH]nnc3c1)C2` [Compound 9, 3,5-Dichlorobenzyl 2-(1H-benzo[d][1,2,3]triazole-5-carbonyl)-2,7-diazaspiro[3.5]-nonane-7-carboxylate], in series [1], the “Mic CL h” value amounted to 30 µL/m/mg prot. In “HT-solubility assay”, this compound had a solubility of 3 µg/mL (≈ 6.32 µM). The GSH adducts result in series [3] was “pos”. Further, the “Mic CL r” value in series [5] stood at 29 µL/m/mg prot. Also, the 50% inhibitory concentration (IC50) on human ATX was 67 nM. In series [4], the logD at 12 h came to 3.6. The “Mic CL m” value in series [2] amounted to 63 µL/m/mg prot.
As for `O=C(OCc1cc(Cl)cc(Cl)c1)N1CCC2(CC1)CN(C(=O)c1ccc3[nH]c(=O)oc3c1)C2` [Compound 4, 3,5-Dichlorobenzyl 2-(2-oxo-2,3-dihydrobenzo[d]oxazole-6-carbonyl)-2,7-diaza-spiro[3.5]-nonane-7-carboxylate], in series [1], the “Mic CL h” value is given as 54 µL/m/mg prot. For the same compound, in the series “HT-solubility assay”, the solubility was < 1 µg/mL. In series [3], the GSH adducts result is on record as “pos”. The IC50 on human ATX came out at 17 nM. The log distribution coefficient (logD) at 12 h in series [4] is 3.6. For the same compound, the “Mic CL m” value in series [2] is on record as 149 µL/m/mg prot.
Consider `O=C(OCc1cc(Cl)cc(Cl)c1)N1C[C@@H]2CN(C(=O)c3ccc4[nH]nnc4c3)C[C@@H]2C1` [Compound 8, (3aR,6aS)-3,5-dichlorobenzyl 5-(1H-benzo[d][1,2,3]triazole-5-carbonyl)hexahydro-pyrrolo[3,4-c]pyrrole-2(1H)-carboxylate], for which the “Mic CL h” value in series [1] is listed as 23 µL/m/mg prot. In the series “HT-solubility assay”, this compound displayed a solubility of 34 µg/mL (≈ 73.9 µM). Further, the GSH adducts result in series [3] is “pos”. Moreover, the 50% inhibitory concentration (IC50) at human ATX turned out to be 265 nM. Also, in series [4], the logD at 12 h came out at 3.1. In addition, the “Mic CL m” value in series [2] amounted to 68 µL/m/mg prot.
For the compound `O=C(OCc1cc(Cl)cc(Cl)c1)N1C[C@@H]2CN(C(=O)c3ccc4[nH]c(=O)oc4c3)C[C@@H]2C1` [Compound 5, (3aR,6aS)-3,5-Dichlorobenzyl 5-(2-oxo-2,3-dihydrobenzo[d]oxazole-6-carbonyl)-hexahydropyrrolo[3,4-c]pyrrole-2(1H)-carboxylate], the “Mic CL h” value in series [1] stood at 64 µL/m/mg prot. In addition, in “HT-solubility assay”, the solubility turned out to be 19 µg/mL (≈ 39.9 µM). In addition, the GSH adducts result in series [3] was “pos”. Also, the “Mic CL r” value in series [5] is listed as 335 µL/m/mg prot. Further, the 50% inhibitory concentration (IC50) on human ATX was found to be 65 nM. Further, the logD at 12 h in series [4] is 3.3. For the same compound, the “Mic CL m” value in series [2] is 288 µL/m/mg prot.
Regarding `O=C(CCN1CCN(C(=O)OCc2cc(Cl)cc(Cl)c2)CC1)c1ccc2[nH]c(=O)oc2c1` [Compound 1, reference compound], in series [1], the “Mic CL h” value turned out to be 65 µL/m/mg prot. Moreover, the solubility in “HT-solubility assay” is < 1 µg/mL. Besides, the GSH adducts entry in series [3] is recorded as “pos”. In addition, the “Mic CL r” value in series [5] worked out at 84 µL/m/mg prot. In series [4], this compound returned a logD at 12 h of 2.7. Also, in series [2], the “Mic CL m” value is listed as 78 µL/m/mg prot.
`O=C(/C=C/c1ccc(OC(F)(F)F)cc1)N1C[C@@H]2CN(C(=O)c3ccc4[nH]nnc4c3)C[C@H]2C1` [Compound 11, (E)-1-((3aR,6aR)-5-(1H-benzo[d][1,2,3]triazole-5-carbonyl)hexahydropyrrolo[3,4-c]pyrrol-2(1H)-yl)-3-(4-(trifluoromethoxy)phenyl)prop-2-en-1-one]: in series [1], the “Mic CL h” value is on record as 10/10/na µL/m/mg prot. In addition, in the series “HT-solubility assay”, the solubility is < 1 µg/mL. The GSH adducts entry in series [3] is reported as “Neg”. Also, the 50% inhibitory concentration (IC50) on human ATX was 1 nM. The same compound registered a logD at 12 h in series [4] of 2.3. For the same compound, in series [2], the “Mic CL m” value was 10/10/na µL/m/mg prot.
On to `O=C(OCc1cc(Cl)cc(Cl)c1)N1CC[C@@H]2CN(C(=O)c3ccc4[nH]c(=O)oc4c3)C[C@H]2C1` (relative stereo) [Compound 2, trans-3,5-Dichlorobenzyl 2-(2-oxo-2,3-dihydrobenzo[d]oxazole-6-carbonyl)hexa-hydro-1H-pyrrolo[3,4-c]pyridine-5(6H)-carboxylate], for which the “Mic CL h” value in series [1] amounted to 39 µL/m/mg prot. The solubility in the series “HT-solubility assay” is < 1 µg/mL. Moreover, the GSH adducts entry in series [3] is “formation of GSH adducts was still observed and pos”. Further, the half-maximal inhibitory concentration (IC50) on human ATX amounted to 3 nM. In series [4], this compound gave a logD at 12 h of 3.7. Also, in series [2], the “Mic CL m” value turned out to be 74 µL/m/mg prot.
`O=C(OCc1cc(Cl)cc(Cl)c1)N1CC2(CCN(C(=O)c3ccc4[nH]c(=O)oc4c3)CC2)C1` [Compound 3, trans-3,5-Dichlorobenzyl 7-(2-oxo-2,3-dihydrobenzo[d]oxazole-6-carbonyl)-2,7-diaza-spiro[3.5]nonane-2-carboxylate]: in series [1], the “Mic CL h” value amounted to 92 µL/m/mg prot. The solubility in “HT-solubility assay” was < 1 µg/mL. For the same compound, on human ATX, the half-inhibitory concentration (IC50) worked out at 220 nM. Moreover, in series [4], the logD at 12 h was found to be 3.6. Besides, the “Mic CL m” value in series [2] is reported as 81 µL/m/mg prot.

The record behind these values is paper PMC8807399, “Synthesis, Characterization, and in vivo Evaluation of a Novel Potent Autotaxin-Inhibitor” (Frontiers in Pharmacology, 2022).
